In the NIST ThermoML archive (doi:10.1021/acs.jced.6b00523):
Values joined by “and” are separate entries in the source; they are usually repeats but may differ in a detail not shown here. Identical values can stand only once.

Conditions: Liquid, Closed cell (Static) method

CCCCCCCCCC [decane]
Conditions | vapor or sublimation pressure
276.76 K | 0.03526 kPa
276.77 K | 0.03527 kPa and 0.03532 kPa
279.78 K | 0.0452 kPa
279.79 K | 0.04525 kPa
282.92 K | 0.0583 kPa and 0.05835 kPa
282.93 K | 0.05835 kPa
285.13 K | 0.06951 kPa
285.16 K | 0.06967 kPa
285.18 K | 0.06981 kPa
288.76 K | 0.0915 kPa and 0.09155 kPa
288.77 K | 0.09159 kPa
292.21 K | 0.1188 kPa
292.22 K | 0.1188 kPa
294.67 K | 0.1405 kPa
301.29 K | 0.2229 kPa
301.38 K | 0.2242 kPa and 0.2243 kPa
303.84 K | 0.2659 kPa
303.85 K | 0.266 kPa and 0.2661 kPa
307.33 K | 0.3327 kPa and 0.3328 kPa
315.2 K | 0.5466 kPa
315.21 K | 0.5467 kPa
319.09 K | 0.6901 kPa
319.11 K | 0.6907 kPa and 0.6909 kPa
320.85 K | 0.7646 kPa and 0.7649 kPa and 0.765 kPa
324.98 K | 0.9683 kPa
324.99 K | 0.9687 kPa
325 K | 0.9687 kPa
326.41 K | 1.049 kPa
330.79 K | 1.33 kPa and 1.331 kPa
330.8 K | 1.332 kPa
331.92 K | 1.414 kPa
331.93 K | 1.415 kPa
